This note sets out measurements from US12371454B2, “Cyclic peptide compound having Kras inhibitory action” (priority 2019, dated 2025).

The IC50 is the concentration that gives 50% inhibition.

The target in this assay is T1, Kras and SOS1 (biotin-tagged human Kras loaded with GDP, His-tagged human SOS1) (Homo sapiens, UniProt P01116, G12D).
T1 construct: made in house; host or cells: E. coli (stated for Kras only)
Nature of the assay: Protein-protein interaction inhibition between Kras and SOS1 (KrasGl2D-SOS PPI) using AlphaScreen. It counts as binding. The settings on record: AlphaScreen; biotin-tagged human Kras loaded with GDP, His-tagged human SOS1; read-out: KRAS G12D-SOS PPI IC50. The procedure, abridged:
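Binding between SOS1 and Kras is detected as bead-proximity luminescence: illuminate Ni-conjugated donors (680 nm), collect 520-620 nm emission from streptavidin-conjugated acceptors; Kras carries biotin and GDP loaded after purification, SOS1 carries a His tag.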

Starred links: 1 amine or outer side, 2 acyl side, 3 side chain; linkers in the order of their positions; H or OH if unused. Positions of bridges follow the written chain, without caps; N, C: chain ends. Non-standard residues stand in square brackets, D forms with d. Residues, ends and D or L forms follow the SMILES beside them. *: point of attachment. hPhe(3-Cl-4-CF3) = N[C@@H](CCc1ccc(C(F)(F)F)c(Cl)c1)C(=O)O; X23 = CN([C@@H](Cc1ccccc1OC(F)(F)F)C(=O)[*:2])[*:1]; NMePhe(3-Cl) = CN[C@@H](Cc1cccc(Cl)c1)C(=O)O; NMePhe(4-Me) = CN[C@@H](Cc1ccc(C)cc1)C(=O)O; NMePhe(4-F) = CN[C@@H](Cc1ccc(F)cc1)C(=O)O; NMeNva(5,5-F2) = CN[C@@H](CCC(F)F)C(=O)O; NMeGly(cPent) = CN[C@H](C(=O)O)C1CCCC1; NMeAla(cPr) = CN[C@@H](CC1CC1)C(=O)O; NMehPhe = CN[C@@H](CCc1ccccc1)C(=O)O; NMeCha = CN[C@@H](CC1CCCCC1)C(=O)O; NMeGly(cPr) = CN[C@H](C(=O)O)C1CC1; NMeChg = CN[C@H](C(=O)O)C1CCCCC1; NMeF = CN[C@@H](Cc1ccccc1)C(=O)O; NMeI = CC[C@H](C)[C@H](NC)C(=O)O; NMeD = CN[C@@H](CC(=O)O)C(=O)O; NMeL = CN[C@@H](CC(C)C)C(=O)O; hLeu = CC(C)CC[C@H](N)C(=O)O; NMeV = CN[C@H](C(=O)O)C(C)C; d(β3hA) = C[C@@H](N)CC(=O)O; NMeS = CN[C@@H](CO)C(=O)O; Ac6c = NC1(C(=O)O)CCCCC1; NMeA = CN[C@@H](C)C(=O)O; Piperidide = C1CCN(*)CC1; Pyrrolidide = C1CCN(*)C1; dNMeA = CN[C@H](C)C(=O)O; Ac5c = NC1(C(=O)O)CCCC1; Aze = O=C(O)[C@@H]1CCN1; Sar = CNCC(=O)O

T1 sequence (P01116 1-188 isoform P01116-2 G12D): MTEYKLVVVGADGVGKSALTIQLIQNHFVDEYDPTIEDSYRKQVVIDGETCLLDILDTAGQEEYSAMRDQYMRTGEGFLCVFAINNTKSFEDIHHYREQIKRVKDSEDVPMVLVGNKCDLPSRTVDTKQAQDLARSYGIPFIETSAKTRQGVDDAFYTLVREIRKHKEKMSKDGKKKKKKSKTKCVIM

With `CC[C@H](C)[C@@H]1NC(=O)[C@H](CC(C)C)N(C)C(=O)C[C@@H](C)NC(=O)[C@H](C(C)C)N(C)C(=O)C2(CCCC2)NC(=O)[C@@H]2CCCN2C(=O)[C@H](CCc2ccc(C(F)(F)F)c(Cl)c2)NC(=O)CN(C)C(=O)[C@H](Cc2cccc(Cl)c2)N(C)C(=O)CN(C)C(=O)CN(C)C1=O` [Compound 1623] (cyclo([Ac5c][NMeV][d(β3hA)][NMeL]I[Sar][Sar][NMePhe(3-Cl)][Sar][hPhe(3-Cl-4-CF3)]P)), the IC50 was determined as 54 nM.

As to `CC[C@H](C)[C@@H]1NC(=O)[C@H](CC(C)C)N(C)C(=O)C[C@@H](C(=O)N2CCCCC2)N(C)C(=O)[C@H](C(C)C)N(C)C(=O)C2(CCCC2)NC(=O)[C@@H]2CCCN2C(=O)[C@H](CCc2ccc(C(F)(F)F)c(Cl)c2)NC(=O)CN(C)C(=O)[C@H](CC2CCCCC2)N(C)C(=O)[C@@H]2CCN2C(=O)[C@H](CCc2ccccc2)N(C)C1=O` [Compound 1624] ([NMeL]I[NMehPhe][Aze][NMeCha][Sar][hPhe(3-Cl-4-CF3)]P[Ac5c][NMeV][NMeD]-Piperidide; lactam N-11), the concentration for half-maximal inhibition (IC50) was determined as 92 nM. For the compound `CC[C@H](C)[C@@H]1NC(=O)[C@H](CC(C)C)N(C)C(=O)C[C@@H](C)NC(=O)[C@H](C(C)C)N(C)C(=O)C2(CCCC2)NC(=O)[C@@H]2CCCN2C(=O)[C@H](CCc2ccc(C(F)(F)F)c(Cl)c2)NC(=O)CN(C)C(=O)[C@H](CCc2ccccc2)N(C)C(=O)CN(C)C(=O)CN(C)C1=O` [Compound 1627] (cyclo([Ac5c][NMeV][d(β3hA)][NMeL]I[Sar][Sar][NMehPhe][Sar][hPhe(3-Cl-4-CF3)]P)), the 50% inhibitory concentration (IC50) was found to be 15 nM. As for `CC[C@H](C)[C@@H]1NC(=O)[C@H](CC(C)C)N(C)C(=O)C[C@@H](C)NC(=O)[C@H](C(C)C)N(C)C(=O)C2(CCCC2)NC(=O)[C@@H]2CCCN2C(=O)[C@H](CCc2ccc(C(F)(F)F)c(Cl)c2)NC(=O)CN(C)C(=O)[C@H](Cc2ccccc2OC(F)(F)F)N(C)C(=O)CN(C)C(=O)CN(C)C1=O` [Compound 1635] (cyclo([Ac5c][NMeV][d(β3hA)][NMeL]I[Sar][Sar][X23][Sar][hPhe(3-Cl-4-CF3)]P)), the figure is 140 nM; as for `CC[C@H](C)[C@@H]1NC(=O)[C@H](CC(C)C)N(C)C(=O)C[C@@H](C(=O)N2CCCCC2)N(C)C(=O)[C@H](C(C)C)N(C)C(=O)C2(CCCC2)NC(=O)[C@@H]2CCCN2C(=O)[C@H](CCc2ccc(C(F)(F)F)c(Cl)c2)NC(=O)CN(C)C(=O)[C@H](CC2CCCCC2)N(C)C(=O)[C@@H]2CCN2C(=O)[C@H](CC2CC2)N(C)C1=O` [Compound 1642] ([NMeL]I[NMeAla(cPr)][Aze][NMeCha][Sar][hPhe(3-Cl-4-CF3)]P[Ac5c][NMeV][NMeD]-Piperidide; lactam N-11), 58 nM. `CC[C@H](C)[C@@H]1NC(=O)[C@H](CC(C)C)N(C)C(=O)C[C@@H](C(=O)N2CCCCC2)N(C)C(=O)[C@H](C2CCCCC2)N(C)C(=O)C2(CCCCC2)NC(=O)[C@@H]2CCCN2C(=O)[C@H](CCc2ccc(C(F)(F)F)c(Cl)c2)NC(=O)CN(C)C(=O)[C@H](CC2CCCCC2)N(C)C(=O)CN(C)C(=O)CN(C)C1=O` [Compound 1644] ([NMeL]I[Sar][Sar][NMeCha][Sar][hPhe(3-Cl-4-CF3)]P[Ac6c][NMeChg][NMeD]-Piperidide; lactam N-11): the 50% inhibitory concentration (IC50) turned out to be 3.1 nM. For the compound `CC[C@H](C)[C@@H]1NC(=O)[C@H](CC(C)C)N(C)C(=O)C[C@@H](C(=O)N2CCCCC2)N(C)C(=O)[C@H](C2CCCCC2)N(C)C(=O)C2(CCCC2)NC(=O)[C@@H]2CCCN2C(=O)[C@H](CCc2ccc(C(F)(F)F)c(Cl)c2)NC(=O)CN(C)C(=O)[C@H](CCC(F)F)N(C)C(=O)CN(C)C(=O)CN(C)C1=O` [Compound 1647] ([NMeL]I[Sar][Sar][NMeNva(5,5-F2)][Sar][hPhe(3-Cl-4-CF3)]P[Ac5c][NMeChg][NMeD]-Piperidide; lactam N-11), the half-inhibitory concentration (IC50) was found to be 3 nM. `CC[C@H](C)[C@@H]1NC(=O)[C@H](CC(C)C)N(C)C(=O)C[C@@H](C(=O)N2CCCCC2)N(C)C(=O)[C@H]([C@@H](C)CC)N(C)C(=O)C2(CCCC2)NC(=O)[C@@H]2CCCN2C(=O)[C@H](CCc2ccc(C(F)(F)F)c(Cl)c2)NC(=O)CN(C)C(=O)[C@H](Cc2ccc(C)cc2)N(C)C(=O)CN(C)C(=O)CN(C)C1=O` [Compound 1649] ([NMeL]I[Sar][Sar][NMePhe(4-Me)][Sar][hPhe(3-Cl-4-CF3)]P[Ac5c][NMeI][NMeD]-Piperidide; lactam N-11): the IC50 was determined as 0.42 nM. As for `CC(C)CC[C@@H]1NC(=O)[C@H](CC(C)C)N(C)C(=O)C[C@@H](C(=O)N2CCCCC2)N(C)C(=O)[C@H](C2CCCCC2)N(C)C(=O)C2(CCCC2)NC(=O)[C@@H]2CCCN2C(=O)[C@H](CCc2ccc(C(F)(F)F)c(Cl)c2)NC(=O)CN(C)C(=O)[C@H](CC2CCCCC2)N(C)C(=O)CN(C)C(=O)CN(C)C1=O` [Compound 1651] ([NMeL][hLeu][Sar][Sar][NMeCha][Sar][hPhe(3-Cl-4-CF3)]P[Ac5c][NMeChg][NMeD]-Piperidide; lactam N-11), the figure is 4.9 nM. In the case of `CC[C@H](C)[C@@H]1NC(=O)[C@H](C)N(C)C(=O)C[C@@H](C)NC(=O)[C@H](C(C)C)N(C)C(=O)C2(CCCC2)NC(=O)[C@@H]2CCCN2C(=O)[C@H](CCc2ccc(C(F)(F)F)c(Cl)c2)NC(=O)[C@@H](C)N(C)C(=O)[C@H](Cc2ccc(F)cc2)N(C)C(=O)CN(C)C(=O)CN(C)C1=O` [Compound 1655] (cyclo([Ac5c][NMeV][d(β3hA)][NMeA]I[Sar][Sar][NMePhe(4-F)][dNMeA][hPhe(3-Cl-4-CF3)]P)), the IC50 was found to be 85 nM. With `CC[C@H](C)[C@@H]1NC(=O)[C@H](CC(C)C)N(C)C(=O)C[C@@H](C(=O)N(C)C)N(C)C(=O)[C@H](C2CCCC2)N(C)C(=O)C2(CCCC2)NC(=O)[C@@H]2CCCN2C(=O)[C@H](CCc2ccc(C(F)(F)F)c(Cl)c2)NC(=O)CN(C)C(=O)[C@H](CC2CCCCC2)N(C)C(=O)CN(C)C(=O)CN(C)C1=O` [Compound 1659] ([NMeL]I[Sar][Sar][NMeCha][Sar][hPhe(3-Cl-4-CF3)]P[Ac5c][NMeGly(cPent)][NMeD]-NMe2; lactam N-11), the IC50 came to 0.38 nM. Under `CC[C@H](C)[C@@H]1NC(=O)[C@H](CC(C)C)N(C)C(=O)C[C@@H](C(=O)N2CCCC2)N(C)C(=O)[C@H]([C@@H](C)CC)N(C)C(=O)C2(CCCC2)NC(=O)[C@@H]2CCCN2C(=O)[C@H](CCc2ccc(C(F)(F)F)c(Cl)c2)NC(=O)CN(C)C(=O)[C@H](CC2CCCCC2)N(C)C(=O)CN(C)C(=O)CN(C)C1=O` [Compound 1662] ([NMeL]I[Sar][Sar][NMeCha][Sar][hPhe(3-Cl-4-CF3)]P[Ac5c][NMeI][NMeD]-Pyrrolidide; lactam N-11) stands 0.65 nM; under `CC[C@H](C)[C@@H]1NC(=O)[C@H](CC(C)C)N(C)C(=O)C[C@@H](C(=O)N2CCCCC2)N(C)C(=O)[C@H](C2CCCCC2)N(C)C(=O)C2(CCCC2)NC(=O)[C@@H]2CCCN2C(=O)[C@H](CCc2ccc(C(F)(F)F)c(Cl)c2)NC(=O)CN(C)C(=O)[C@H](C2CC2)N(C)C(=O)CN(C)C(=O)CN(C)C1=O` [Compound 1666] ([NMeL]I[Sar][Sar][NMeGly(cPr)][Sar][hPhe(3-Cl-4-CF3)]P[Ac5c][NMeChg][NMeD]-Piperidide; lactam N-11), 1.1 nM. For `CC[C@H](C)[C@@H]1NC(=O)[C@H](C)N(C)C(=O)C[C@@H](C)NC(=O)[C@H](C(C)C)N(C)C(=O)C2(CCCC2)NC(=O)[C@@H]2CCCN2C(=O)[C@H](CCc2ccc(C(F)(F)F)c(Cl)c2)NC(=O)[C@H]2CCCN2C(=O)[C@H](Cc2ccc(F)cc2)N(C)C(=O)[C@@H]2CCCN2C(=O)CN(C)C1=O` [Compound 1667] (cyclo([Ac5c][NMeV][d(β3hA)][NMeA]I[Sar]P[NMePhe(4-F)][dP][hPhe(3-Cl-4-CF3)]P)), the IC50 turned out to be 13 nM.

As for `CC[C@H](C)[C@@H]1NC(=O)[C@H](CC(C)C)N(C)C(=O)C[C@@H](C(=O)N2CCCCC2)N(C)C(=O)[C@H](C2CCCCC2)N(C)C(=O)C2(CCCC2)NC(=O)[C@@H]2CCCN2C(=O)[C@H](CCc2ccc(C(F)(F)F)c(Cl)c2)NC(=O)CN(C)C(=O)[C@H](C)N(C)C(=O)CN(C)C(=O)CN(C)C1=O` [Compound 1681] ([NMeL]I[Sar][Sar][NMeA][Sar][hPhe(3-Cl-4-CF3)]P[Ac5c][NMeChg][NMeD]-Piperidide; lactam N-11), the 50% inhibitory concentration (IC50) was 3.1 nM. As for `CC[C@H](C)[C@@H]1NC(=O)[C@H](CC(C)C)N(C)C(=O)C[C@@H](C(=O)N2CCCCC2)N(C)C(=O)[C@H](C2CCCCC2)N(C)C(=O)C2(CCCC2)NC(=O)[C@@H]2CCCN2C(=O)[C@H](CCc2ccc(C(F)(F)F)c(Cl)c2)NC(=O)CN(C)C(=O)[C@H](CO)N(C)C(=O)CN(C)C(=O)CN(C)C1=O` [Compound 1687] ([NMeL]I[Sar][Sar][NMeS][Sar][hPhe(3-Cl-4-CF3)]P[Ac5c][NMeChg][NMeD]-Piperidide; lactam N-11), the half-maximal inhibitory concentration (IC50) amounted to 4.2 nM. As for `CC[C@H](C)[C@@H]1NC(=O)[C@H](C)N(C)C(=O)C[C@@H](C)NC(=O)[C@H](C2CCCCC2)N(C)C(=O)C2(CCCC2)NC(=O)[C@@H]2CCCN2C(=O)[C@H](CCc2ccc(C(F)(F)F)c(Cl)c2)NC(=O)CN(C)C(=O)[C@H](CC2CCCCC2)N(C)C(=O)CN(C)C(=O)CN(C)C1=O` [Compound 1688] (cyclo([Ac5c][NMeChg][d(β3hA)][NMeA]I[Sar][Sar][NMeCha][Sar][hPhe(3-Cl-4-CF3)]P)), the figure is 24 nM. With `CC[C@H](C)[C@@H]1NC(=O)[C@H](C)N(C)C(=O)C[C@@H](C)NC(=O)[C@H](C(C)C)N(C)C(=O)C2(CCCC2)NC(=O)[C@@H]2CCCN2C(=O)[C@H](CCc2ccc(C(F)(F)F)c(Cl)c2)NC(=O)[C@@H](C)N(C)C(=O)[C@H](Cc2ccccc2)N(C)C(=O)CN(C)C(=O)CN(C)C1=O` [Compound 1691] (cyclo([Ac5c][NMeV][d(β3hA)][NMeA]I[Sar][Sar][NMeF][dNMeA][hPhe(3-Cl-4-CF3)]P)), the half-maximal inhibitory concentration (IC50) is 120 nM.
